CO/N=C(\C(=O)N[C@@H]1C(=O)N2C(C(=O)O)=C(CSC(=O)c3ccco3)CS[C@H]12)c1csc(N)n1.Cl
Conditions	solubility (mole fraction)
in acetone, 283.36 K	1e-05
in acetone, 288.2 K	1.6e-05
in acetone, 293.15 K	2.7e-05
in acetone, 298.05 K	4.3e-05
in acetone, 302.87 K	7e-05
in acetone, 307.65 K	0.00011
in acetone, 313.45 K	0.000193
in acetone, 318.4 K	0.000313
in acetone, 322.35 K	0.000478
in ethanol, 283.35 K	0.00178
in ethanol, 288.15 K	0.00192
in ethanol, 293.15 K	0.00209
in ethanol, 298.15 K	0.00233
in ethanol, 303.1 K	0.00262
in ethanol, 307.95 K	0.00292
in ethanol, 313.55 K	0.00335
in ethanol, 318.75 K	0.00384
in ethanol, 322.65 K	0.00421
in isopropanol, 283.2 K	0.000235
in isopropanol, 288.2 K	0.000255
in isopropanol, 293.15 K	0.000311
in isopropanol, 298.15 K	0.000402
in isopropanol, 303.05 K	0.000535
in isopropanol, 308 K	0.000649
in isopropanol, 312.8 K	0.000793
in isopropanol, 318.45 K	0.001
in isopropanol, 324.35 K	0.00134
in methanol, 283.25 K	0.00952
in methanol, 288.25 K	0.00992
in methanol, 293.15 K	0.0105
in methanol, 297.85 K	0.0112
in methanol, 300.55 K	0.0116
in methanol, 307.35 K	0.0127
in methanol, 313.3 K	0.0137
in methanol, 317.95 K	0.0148
in methanol, 320.65 K	0.0155
in n-propanol, 283.55 K	0.000534
in n-propanol, 288.55 K	0.000573
in n-propanol, 293.35 K	0.000646
in n-propanol, 298.35 K	0.000717
in n-propanol, 303.35 K	0.000802
in n-propanol, 308.05 K	0.000922
in n-propanol, 312.95 K	0.00103
in n-propanol, 317.95 K	0.00117
in n-propanol, 322.75 K	0.00135

Source: BigSolDB 2.1
